Reference: patent publication US12319752B2, “Heparin-binding cationic peptide self-assembling peptide amphiphiles useful against drug-resistant bacteria” (priority 2016, dated 2025)
Converted amounts (≈) assume the structure as drawn. Residues, ends and D or L forms follow the SMILES beside them. *: point of attachment. Palmitoyl = CCCCCCCCCCCCCCCC(=O)*

Legend:
MRSA [1] = format: cell-based, methicillin-resistant S. aureus (MRSA, ATCC #43300); details: 24 h
Experimental: (§1) This assay was performed to investigate the inhibitory effects of each peptide against Gram-positive Staphylococcus aureus (S. aureus, ATCC #25923) and methicillin-resistant S. aureus (MRSA, ATCC #43300), as well as Gram-negative Escherichia coli (E. coli, ATCC #25922), and multidrug-resistant E. coli (MDR E. coli, ATCC #BAA-2471). In all experiments, solutions of each peptide at the concentrations from 20 μM to 100 μM in 3% Tryptic Soy Broth (TSB) media were freshly prepared. A single colony of bacteria was isolated from a stock agar plate and cultured overnight in 4 mL of 3% TSB on a shaking incubator set at 200 rpm and 37° C. […] The bacteria were incubated inside a spectrophotometer (Spectra-Max Paradigm, Molecular Devices, Sunnyvale, CA) at 37° C. under static conditions for 20 h, and the bacterial growth curves were measured in terms of turbidity at OD562 every 2 minutes. The normalized OD562 values of samples were calculated by subtracting the […].
(§2) The minimum inhibitory concentration (MIC) of ACA-PA was tested against drug-resistant bacteria and compared with conventional penicillin-streptomycin (10,000 U/mL, Thermo Fisher Scientific, Waltham, MA, USA) as well. […] The OD562 was measured at the end of treatment. […]

MRSA [2] = experiment: Bacterial membrane disruption by TEM of ultrathin sections; format: cell-based, methicillin-resistant S. aureus (MRSA); details: 4 h
Experimental: TEM was used to reveal the damage in bacterial cell envelopes caused by ACA-PA treatment. Drug-resistant bacterial strains (MRSA and MDR E. coli) were exposed to ACA-PA at concentrations below (40 μM) and above (80 μM) the CMC, and ultrathin sections of the bacterial cultures were visualized by TEM.
The ACA-PA at a concentration lower than CMC seemed to only influenced the outer bacteria membrane, but were inadequate to disrupt the inner bacteria membranes.
Bacterial membrane disruption was observed from the ultrathin sectioned sample using TEM. […] After treatment with 80 μM ACA nanorods, bacterial cell membranes were severely damaged with complete cytoplasm leakage. […] On the damaged membranes, blisters appeared to originate from the pores. This explains the reason for the different antibacterial activity of ACA-PA on Gram-negative bacteria compared to the concentration-dependent toxicity on Gram-positive bacteria. The cell envelope of Gram-positive has a cytoplasmic membrane surrounded by a thick peptidoglycan layer with lipoteichoic acid. The antibacterial ACA-PA could penetrate the Gram-positive bacterial membrane by charge and hydrophobicity, although the PA were in a dispersed, non-assembled form. However, such dispersed PA were not able to penetrate the outer membrane of Gram-negative bacteria. […]

MDR E. coli = format: cell-based, multidrug-resistant E. coli (MDR E. coli, ATCC #BAA-2471); details: 24 h
Experimental: as §1, §2

## CCCCCCCCCCCCCCCC(=O)N[C@H](C(=O)N[C@H](C(=O)N[C@H](C(=O)N[C@H](C(=O)N[C@@H](CCCCN)C(=O)N[C@@H](CCCCN)C(=O)N[C@@H](CCCCN)C(=O)N[C@@H](CCCCN)C(=O)NCC(=O)N[C@@H](C)C(=O)N[C@@H](CCCCN)C(=O)N[C@@H](CCCCN)C(=O)N[C@@H](C)C(=O)N[C@@H](CCCNC(=N)N)C(=O)N[C@@H](C)C(=O)N[C@@H](C)C(=O)N[C@@H](CCCCN)C(=O)N[C@@H](CCCCN)C(=O)N[C@@H](C)C(=O)N[C@@H](CCCNC(=N)N)C(=O)N[C@@H](C)C(=O)O)C(C)C)C(C)C)C(C)C)C(C)C [ACA-PA, C16-V4K4G(AKKARA)2 (SEQ ID NO: 7)] (Palmitoyl-VVVVKKKKGAKKARAAKKARA-OH; N-terminus and C-terminus assumed)
MRSA [1]
  Minimum inhibitory concentration (MIC): 300 µg/mL (≈ 121 µM)
MRSA [2]; 40 μM
  bacterial membrane disruption (TEM): partially damaged
MRSA [2]; 80 μM
  bacterial membrane disruption (TEM): localized disruption on the cell membrane and complete leakage of the cytoplasm
MDR E. coli
  Minimum inhibitory concentration (MIC): 400 µg/mL (≈ 162 µM)
